This data set relates to CCRIS mutagenicity, Ames/micronucleus/aberration tests. Nature of the data set: CCRIS mutagenicity studies.
Where [1] appears, read: Test System: AMES SALMONELLA TYPHIMURIUM, Strain/Indicator: TA98, Metabolic Activation: NONE, Method: PREINCUBATION
The mark [2] stands for this setting: Test System: AMES SALMONELLA TYPHIMURIUM, Strain/Indicator: TA98, Metabolic Activation: NONE, Method: STANDARD PLATE.
Setting [3] is: Test System: AMES SALMONELLA TYPHIMURIUM, Strain/Indicator: TA100, Metabolic Activation: NONE, Method: STANDARD PLATE.
[4] abbreviates: Test System: MOUSE LYMPHOMA, Strain/Indicator: L5178Y (TK+/TK-), Metabolic Activation: RAT, LIVER, S-9, AROCLOR 1254, Method: SUSPENSION/PLATE.

Structures are written as SMILES. Calls of active or inactive are those of the source. How the calls were made is not given here.

For `CC(=O)Nc1ccc(NC(C)=O)cc1`, the mutagenic call is, setting by setting: (Test System: Ames Salmonella typhimurium, Strain/Indicator: TA98, Metabolic Activation: None, Method: Standard Plate) “inactive; negative”; (Test System: Ames Salmonella typhimurium, Strain/Indicator: TA100, Metabolic Activation: None, Method: Standard Plate) “inactive; negative”; (Test System: Ames Salmonella typhimurium, Strain/Indicator: TA102, Metabolic Activation: None, Method: Standard Plate) “inactive; negative”; (Test System: Ames Salmonella typhimurium, Strain/Indicator: TA1535, Metabolic Activation: None, Method: Standard Plate) “inactive; negative”; (Test System: Ames Salmonella typhimurium, Strain/Indicator: TA1537, Metabolic Activation: None, Method: Standard Plate) “inactive; negative”.

For `CN1C[C@H](C(=O)N[C@]2(C)O[C@@]3(O)[C@@H]4CCCN4C(=O)[C@H](Cc4ccccc4)N3C2=O)C=C2c3cccc4[nH]cc(c34)C[C@H]21`, the mutagenic call reads like this: (Test System: AMES SALMONELLA TYPHIMURIUM, Strain/Indicator: TA98, Metabolic Activation: HAMSTER, LIVER, S-9, AROCLOR 1254 (10%), Method: PREINCUBATION) “inactive; negative”; (Test System: AMES SALMONELLA TYPHIMURIUM, Strain/Indicator: TA98, Metabolic Activation: HAMSTER, LIVER, S-9, AROCLOR 1254, Method: STANDARD PLATE) “inactive; negative”; under setting [1], “inactive; negative”; under setting [2], “inactive; negative”; (Test System: AMES SALMONELLA TYPHIMURIUM, Strain/Indicator: TA98, Metabolic Activation: RAT, LIVER, S-9, AROCLOR 1254 (10%), Method: PREINCUBATION) “inactive; negative”; (Test System: AMES SALMONELLA TYPHIMURIUM, Strain/Indicator: TA98, Metabolic Activation: RAT, LIVER, S-9, AROCLOR 1254, Method: STANDARD PLATE) “inactive; negative”. In addition, the mutagenic call was “inactive; negative” (Test System: AMES SALMONELLA TYPHIMURIUM, Strain/Indicator: TA100, Metabolic Activation: HAMSTER, LIVER, S-9, AROCLOR 1254 (10%), Method: PREINCUBATION); “inactive; negative” (Test System: AMES SALMONELLA TYPHIMURIUM, Strain/Indicator: TA100, Metabolic Activation: HAMSTER, LIVER, S-9, AROCLOR 1254, Method: STANDARD PLATE); “inactive; negative” (Test System: AMES SALMONELLA TYPHIMURIUM, Strain/Indicator: TA100, Metabolic Activation: NONE, Method: PREINCUBATION); “inactive; negative” under setting [3]; “inactive; negative” (Test System: AMES SALMONELLA TYPHIMURIUM, Strain/Indicator: TA100, Metabolic Activation: RAT, LIVER, S-9, AROCLOR 1254 (10%), Method: PREINCUBATION); “inactive; negative” (Test System: AMES SALMONELLA TYPHIMURIUM, Strain/Indicator: TA100, Metabolic Activation: RAT, LIVER, S-9, AROCLOR 1254, Method: STANDARD PLATE). In addition, the mutagenic call was “inactive; negative” (Test System: AMES SALMONELLA TYPHIMURIUM, Strain/Indicator: TA1535, Metabolic Activation: HAMSTER, LIVER, S-9, AROCLOR 1254 (10%), Method: PREINCUBATION); “inactive; negative” (Test System: AMES SALMONELLA TYPHIMURIUM, Strain/Indicator: TA1535, Metabolic Activation: HAMSTER, LIVER, S-9, AROCLOR 1254, Method: STANDARD PLATE); “inactive; negative” (Test System: AMES SALMONELLA TYPHIMURIUM, Strain/Indicator: TA1535, Metabolic Activation: NONE, Method: PREINCUBATION); “inactive; negative” (Test System: AMES SALMONELLA TYPHIMURIUM, Strain/Indicator: TA1535, Metabolic Activation: NONE, Method: STANDARD PLATE); “inactive; negative” (Test System: AMES SALMONELLA TYPHIMURIUM, Strain/Indicator: TA1535, Metabolic Activation: RAT, LIVER, S-9, AROCLOR 1254 (10%), Method: PREINCUBATION); “inactive; negative” (Test System: AMES SALMONELLA TYPHIMURIUM, Strain/Indicator: TA1535, Metabolic Activation: RAT, LIVER, S-9, AROCLOR 1254, Method: STANDARD PLATE). In addition, the mutagenic call was “inactive; negative” (Test System: AMES SALMONELLA TYPHIMURIUM, Strain/Indicator: TA1537, Metabolic Activation: HAMSTER, LIVER, S-9, AROCLOR 1254 (10%), Method: PREINCUBATION); “inactive; negative” (Test System: AMES SALMONELLA TYPHIMURIUM, Strain/Indicator: TA1537, Metabolic Activation: HAMSTER, LIVER, S-9, AROCLOR 1254, Method: STANDARD PLATE); “inactive; negative” (Test System: AMES SALMONELLA TYPHIMURIUM, Strain/Indicator: TA1537, Metabolic Activation: NONE, Method: PREINCUBATION); “inactive; negative” (Test System: AMES SALMONELLA TYPHIMURIUM, Strain/Indicator: TA1537, Metabolic Activation: NONE, Method: STANDARD PLATE); “inactive; negative” (Test System: AMES SALMONELLA TYPHIMURIUM, Strain/Indicator: TA1537, Metabolic Activation: RAT, LIVER, S-9, AROCLOR 1254 (10%), Method: PREINCUBATION); “inactive; negative” (Test System: AMES SALMONELLA TYPHIMURIUM, Strain/Indicator: TA1537, Metabolic Activation: RAT, LIVER, S-9, AROCLOR 1254, Method: STANDARD PLATE). For the same molecule, the mutagenic call by setting is: (Test System: MOUSE LYMPHOMA, Strain/Indicator: L5178Y (TK+/TK-), Metabolic Activation: NONE, Method: SUSPENSION/PLATE) “inactive; negative”; under setting [4], “inactive; negative”; (Test System: Mouse lymphoma, Strain/Indicator: L5178Y (tk+/tk-), Metabolic Activation: None, Method: Suspension/plate) “inactive; negative”; (Test System: Mouse lymphoma, Strain/Indicator: L5178Y (tk+/tk-), Metabolic Activation: Rat, Liver, S-9, Aroclor 1254, Method: Suspension/plate) “inactive; negative”.

As to `O=Nc1ccc2ccc3cc4ccccc4c4ccc1c2c34`, the mutagenic call was “active; positive” (Test System: AMES SALMONELLA TYPHIMURIUM, Strain/Indicator: TA98 (1,8-DNP6), Metabolic Activation: NONE, Method: STANDARD PLATE); “active; positive” (Test System: AMES SALMONELLA TYPHIMURIUM, Strain/Indicator: TA98 (NR), Metabolic Activation: NONE, Method: STANDARD PLATE); “active; positive” under setting [2]; “active; positive” (Test System: CHINESE HAMSTER OVARY, Strain/Indicator: CHO-K1-BH4 (HGPRT), Metabolic Activation: NONE).

`Nc1nc(=S)c2[nH]cnc2[nH]1`: the mutagenic call is “active; positive” (End Point: IN VITRO CHROMOSOMAL ABERRATIONS, Test System: HUMAN HCT116/3-6 CELLS, Metabolic Activation: NONE); “active; positive” (End Point: IN VITRO CHROMOSOMAL ABERRATIONS, Test System: HUMAN HCT116 CELLS, Metabolic Activation: NONE); “active; positive” (End Point: IN VITRO CHROMOSOMAL ABERRATIONS, Test System: HUMAN MT1 CELLS, Metabolic Activation: NONE); “active; positive” (End Point: IN VITRO CHROMOSOMAL ABERRATIONS, Test System: HUMAN TK6 CELLS, Metabolic Activation: NONE).

Consider `COc1ccc2c(c1)[C@H]1CCCC[C@@H]1[C@H]1O[C@@H]21`, for which the mutagenic call is “inactive; negative” under setting [2] and “inactive; negative” under setting [3].

For `CCCCN(CCC)N=O`, the mutagenic call (Test System: AMES SALMONELLA TYPHIMURIUM, Strain/Indicator: TA100, Metabolic Activation: RAT, LIVER, S-9, KC500 OR PHENOBARBITAL, Method: LIQUID SUSPENSION) was “active; positive” and the mutagenic call under setting [4] was “active; positive”.

As for `O=[N+]([O-])c1ccc(-c2ccccc2)c([N+](=O)[O-])c1`, the mutagenic call reads like this: under setting [1], “active; positive”; (Test System: AMES SALMONELLA TYPHIMURIUM, Strain/Indicator: TA98, Metabolic Activation: RAT, LIVER, S-9, PCB (10%), Method: PREINCUBATION) “active; positive”.

In the case of `N#Cc1cccc2cccnc12`, for the setting “Test System: AMES SALMONELLA TYPHIMURIUM, Strain/Indicator: TA100, Metabolic Activation: S-9, Method: PREINCUBATION”, the mutagenic call was “active; positive”.

For the origin of these results see PubChem BioAssay AID1259407 (Chemical Carcinogenesis Research Information System (CCRIS), 2018).
